From patent US20160295854A1, “COMPOSITION AND METHOD FOR EX-VIVO IMMUNOMODULATION AND/OR PRESERVATION OF ORGANS, METHODS AND USE” (UNIAO BRASILEIRA DE EDUCACAO E ASSISTENCIA , MANTENEDORA DA …, priority 2014, published 2016)

Key:
[1] = system: splenocytes; assay: Epitopes mapping of T cells (splenocytes re-stimulated in vitro); assay type: cell-based, BALB/c mice; settings: 5 μg/ml peptide or 60 μg/ml Hsp70, 24 h; for CD4+Foxp3+ (Tregs) cells percentage (FIG. 16 A): compared with DMSO
[2] = system: STAT3; assay: p-STAT3 intracellular marking in BMDCs; assay type: cell-based, mice (Mus musculus); settings: BMDCs, 30 μM inhibitor previous to Hsp70
Protocol: As positive control, the cells were stimulated with […] of phorbol myristate acetate (PMA) for 30 minutes. After the stimuli in the periods mentioned, the cells were fixed with Cytofix Buffer (BD Biosciences) for 10 minutes at 37° C. and permeated with Phosflow Perm Buffer III (BD Biosciences) for 30 minutes on ice. After such procedures, the cells were marked for p-ERK1/2 and p-STAT3.
For analyzing the recipients T cells, the cells were marked for CD4 (GK1.5), CD8a (53-6.7), Foxp3 (MF23), Ki67 (B56) achieved from BD Biosciences. […] The levels of phosphorylated ERK and STAT3 were determined using antibodies for p-ERK1/2 and p-STAT3 (BD Biosciences) in BMDCs previously fixed and permeablized. The cells were subsequently analyzed in the flow cytometer FACSCanto II (BD Biosciences) with the BD FACSDiva (BD Biosciences) program. The data achieved were analyzed with the Flowjo program (version 7.6.5, Tree Star).
The p-ERK expression was measured by flow cytometry. […] The p-STAT3 expression was measured by flow cytometry. […] After that, the IL-10 mRNA levels were measured by Real-time PCR and the concentration of this cytokine by flow cytometry, using the kit CBA Mouse Inflammation. […] After that, the MARCH-I mRNA levels were analyzed by Real-time PCR. […]

[3] = system: cutaneous allograft (B6 donor skin in BALB/c recipients); assay: Murine model of cutaneous allograft, graft immersion-treatment; assay type: in vivo, mice (Mus musculus)
Excerpt: A method for treating grafts, including allografts, was developed by the inventors of the present invention. Thus, the method treats the grafts (that may be full organs) instead of recipient that will receive the graft, using as tool a classic murine model of skin transplantation and well established. Such method, to the light of the inventors, may be considered as new and inventive. The said model consists of a complete incompatibility of MHC molecules and was described by BILLINGHAM & MEDAWAR (1951).
BALB/c recipients, which express the MHC II I-A^d molecule, are anaesthetized and the dorsal stem hairs are removed. In the waxed area, 1 cm^2 of the skin was removed in each recipient mouse and the donor tail skin was sutured in the exposed area. The animals are maintained in individual cages and daily monitored. The graft rejection is confirmed by observing the cyanosis, erythema, erosion and cutaneous graft loss.
This model consists of a complete incompatibility of MHC molecules and was described by BILLINGHAM & MEDAWAR (1951). In this model, the donor mouse B6, which expresses the MHC II I-A^b molecule, is sacrificed. […] After this period, the grafts were sutured in the BALB/c recipients' back, who express the MHC II I-A^d molecule, and the rejection clinical progression is daily monitored.
After that, the grafts were sutured in the BALB/c (I-Ad) animals' back. The animals were daily monitored. ***, p<0.0001. n=22-24 mice per group. The results achieved putting the seven independent experiments together.
After this, these grafts were sutured in BALB/c recipients WT and their rejection were daily monitored.
After this, the grafts were sutured in the BALB/c (I-Ad) animals' back. The animals were daily monitored. *, p<0.05. n=4 mice per group.

[4] = system: MARCH-I; assay: MARCH-I mRNA in DCs by real time PCR; assay type: cell-based, mice (Mus musculus); settings: DCs from IL-10 knockout animals, 24 h; compared with DCs WT
Protocol: The supernatants were collected and used for analyzing cytokine. The cells were further treated with 20 ng/ml of Rapamycin (Cell Signaling), 1 μg/ml of Cyclosporine A (Roche) or 20 ng/ml of IL-10 recombinant murine (R&D System) for 24 h and the total RNA was removed.
The total RNA was isolated from the DCs treated using the kit RNAeasy (Qiagen), according to the manufacturer instructions. The total purified RNA concentration was determined with the kit Qubit® RNA Assay Kit (Invitrogen), read in the Qubit® Fluorometer (Invitrogen). 50 ng of the RNA had reverse transcriptase with 100 U of Sensiscript (Qiagen). DNA concentrations were determined with the kit Qubit® dsDNA HS Assay (Invitrogen), read in the Qubit® Fluorometer (Invitrogen). In a final volume of 10 μL, 8 ng of cDNA were applied using some assays Taqman® Gene Expression (Applied Biosystems): IL10 (Mm00439614_m1), March1 (Mm00613524_m1) and β-actin (4352933E), according to the manufacturer recommendations.
The quantitative real time PCR was performed in the instrument StepOne™ Real-Time PCR System (Applied Biosystems). The relative levels of mRNA were calculated according to the comparative method of Ct, described by […] & LIVAK (2008). The β-actin constituent gene was used as setter. Non-treated DCs served as reference for OVA or Hsp70-treated DCs.
After that, IL-10 mRNA levels were analyzed by Real-time PCR. The β-actin was used as a setter. The IL-10 concentration was measured in the cultures supernatant by flow cytometry. […] (C) As in A, however the MARCH-I mRNA levels were analyzed by Real-time PCR. […] DCs IL-10 KO were also treated with Recombinant IL-10. All treatments were performed for 24 h and MARCH-I mRNA levels were analyzed by Real-time PCR. […] After this period, grafts were sutured in the BALB/c animals' back and the acceptance was daily monitored. Graphs expressed on average ±SEM. *, p<0.05; **, p<0.01; ***, […]. n=3-5 mice per group. Representative results of 3 independent experiments.
After this period, the MARCH-I expression increase was analyzed by Real-time PCR.

[5] = system: cutaneous allograft (B6 donor skin in BALB/c recipients); assay: Cutaneous allograft model, graft immersion followed by topic application; assay type: in vivo, mice (Mus musculus); settings: immersion plus 7 days of topic application (group '- 7 days')
Excerpt: That is, animals that received grafts treated with Hsp70 receive the local application of a Hsp70 solution and the same for OVA.
After this, the grafts were sutured in BALB/c (I-A^d) animals' back. […] The animals were daily monitored. (A) Schematic representation of the treatment strategy used in the experiment. (B) Photographic record of the clinical progression of the acute rejection in groups Hsp70 and OVA. […] Data achieved from previous experiments.

KYTAPEISARILMKL (Heat Shock Protein HSP70) [Peptide 5]
CD4+Foxp3+ (Tregs) cells percentage (FIG. 16 A) [1]: increase in the Tregs production

COc1cccc(-c2cc(=O)c3ccccc3o2)c1N [PD98059, reference compound]
STAT3 activation against the stimulus with Hsp70 after ERK inhibition (FIG. 13 E) [2]: removed the STAT3 activation

VGGSTRMPAVTDLVK [Peptide 2]
graft acceptance after immersion with Hsp70 or peptides (FIG. 17) ([3]; 60 μg/ml Hsp70 or 15 μg/ml peptide, 60 minutes at 4° C., compared to OVA peptide and peptide 5): strong tendency in lengthen the graft acceptance | IL-10 production by splenocytes (FIG. 16 B) [1]: small increase | CD4+Foxp3+ (Tregs) cells percentage (FIG. 16 A) [1]: quite significant increase

B1: recombinant murine IL-10: IL-10 recombinant murine (R&D System), positive control (protein, UniProt P18893 19-178, looked up)
Interleukin-10: SRGQYSREDNNCTHFPVGQSHMLLELRTAFSQVKTFFQTKDQLDNILLTDSLMQDFKGYLGCQALSEMIQFYLVEVMPQAEKHGPEIKEHLNSLGEKLKTLRMRLRRCHRFLPCENKSKAVEQVKSDFNKLQDQGVYKAMNEFDIFINCIEAYMMIKMKS
MARCH-I mRNA levels in DCs IL-10 KO (FIG. 11 D) [4]: reestablished partially

B2: OVA: egg albumin (OVA), control protein (protein, UniProt P01012 2-386, looked up)
Ovalbumin: GSIGAASMEFCFDVFKELKVHHANENIFYCPIAIMSALAMVYLGAKDSTRTQINKVVRFDKLPGFGDSIEAQCGTSVNVHSSLRDILNQITKPNDVYSFSLASRLYAEERYPILPEYLQCVKELYRGGLEPINFQTAADQARELINSWVESQTNGIIRNVLQPSSVDSQTAMVLVNAIVFKGLWEKAFKDEDTQAMPFRVTEQESKPVQMMYQIGLFRVASMASEKMKILELPFASGTMSMLVLLPDEVSGLEQLESIINFEKLTEWTSSNVMEERKIKVYLPRMKMEEKYNLTSVLMAMGITDVFSSSANLSGISSAESLKISQAVHAAHAEINEAGREVVGSAEAGVDAASVSEEFRADHPFLFCIKHIATNAVLFFGRCVSP
Survival average ([3]; graft immersed in 60 μg/mL for 60 minutes, seven independent experiments): 14.0 days | Survival median [5]: 14.0 days | Survival ([5]; individual mice): 16 days
